Data taken from PubChem BioAssay AID256 (DTP/NCI, 2004).
Where “and” joins values, the source holds several entries; their conditions need not be identical. Equal values may be shown once. Toxic doses and inconclusive results are not listed. Rule for the calls: active = survival T/C of 150% or more; inactive = T/C below 125% in these data.

Test system: CD2F1 mice, L1210 leukemia ip, survival T/C
Assay: NCI In Vivo Anticancer Drug Screen. Data for tumor model L1210 Leukemia (intraperitoneal) in CD2F1 (CDF1) mice
Details: higher = longer survival
Procedure, shortened: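 Each value reflects a quotient of treated over vehicle control outcomes in mice with a transplanted tumor.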

[1] = endpoint: mean survival time, dose: 50.0 mg/kg/injection, schedule: Q01DX009 (ip), vehicle: saline with Tween-80
[2] = endpoint: mean survival time, dose: 100.0 mg/kg/injection, schedule: Q01DX009 (ip), vehicle: saline with Tween-80
[3] = endpoint: mean survival time, dose: 200.0 mg/kg/injection, schedule: Q01DX009 (ip), vehicle: saline with Tween-80
[4] = endpoint: mean survival time, dose: 25.0 mg/kg/injection, schedule: Q01DX009 (ip), vehicle: saline with Tween-80
[5] = endpoint: mean survival time, dose: 400.0 mg/kg/injection, schedule: Q01DX009 (ip), vehicle: saline with Tween-80

Measured: T/C

N#Cc1ccc(OCc2nc(N)nc(N)c2-c2ccc(Cl)c(Cl)c2)cc1
inactive: [1] 90 % of control | [2] 102 % of control | [3] 110 % of control

CCCCOC(=S)SCCSC(=S)OCCCC
inactive: [2] 101 % of control | [3] 98 % of control

CCCCOS(=O)(=O)c1ccc(Cl)c([N+](=O)[O-])c1
inactive: [4] 102 % of control | [1] 100 % of control | [2] 91 % of control | endpoint: mean survival time, dose: 100.0 mg/kg/injection, schedule: Q04DX003 (ip), vehicle: saline with Tween-80 96 % of control | endpoint: mean survival time, dose: 200.0 mg/kg/injection, schedule: Q04DX003 (ip), vehicle: saline with Tween-80 98 % of control | endpoint: mean survival time, dose: 400.0 mg/kg/injection, schedule: Q04DX003 (ip), vehicle: saline with Tween-80 91 % of control

COc1ccccc1N/N=C1/CCCNC1=O
inactive: [2] 98 % of control | [3] 101 % of control | [5] 95 % of control

O=C1C=C2C(=CCOC2O)O1 (stereo unspecified)
inactive: endpoint: mean survival time, dose: 0.25 mg/kg/injection, schedule: Q01DX009 (ip), vehicle: Klucel (hydroxypropylcellulose) (HPC) 108 % of control | endpoint: mean survival time, dose: 0.5 mg/kg/injection, schedule: Q01DX009 (ip), vehicle: Klucel (hydroxypropylcellulose) (HPC) 89 % of control and 106 % of control | endpoint: mean survival time, dose: 0.75 mg/kg/injection, schedule: Q01DX009 (ip), vehicle: Klucel (hydroxypropylcellulose) (HPC) 103 % of control | endpoint: mean survival time, dose: 1.0 mg/kg/injection, schedule: Q01DX009 (ip), vehicle: Klucel (hydroxypropylcellulose) (HPC) 101 % of control and 104 % of control | endpoint: mean survival time, dose: 1.5 mg/kg/injection, schedule: Q01DX009 (ip), vehicle: Klucel (hydroxypropylcellulose) (HPC) 104 % of control | endpoint: mean survival time, dose: 2.0 mg/kg/injection, schedule: Q01DX009 (ip), vehicle: Klucel (hydroxypropylcellulose) (HPC) 102 % of control and 103 % of control | endpoint: mean survival time, dose: 3.0 mg/kg/injection, schedule: Q01DX009 (ip), vehicle: Klucel (hydroxypropylcellulose) (HPC) 104 % of control | endpoint: mean survival time, dose: 4.0 mg/kg/injection, schedule: Q01DX009 (ip), vehicle: Klucel (hydroxypropylcellulose) (HPC) 95 % of control and 106 % of control | endpoint: mean survival time, dose: 6.0 mg/kg/injection, schedule: Q01DX009 (ip), vehicle: Klucel (hydroxypropylcellulose) (HPC) 96 % of control

CC(=O)OCC1OC(OC2C(COC(C)=O)OC(Sc3ccccc3)C(OC(C)=O)C2OC(C)=O)C(OC(C)=O)C(OC(C)=O)C1OC(C)=O (stereo unspecified)
inactive: endpoint: mean survival time, dose: 0.78 mg/kg/injection, schedule: Q01DX009 (ip), vehicle: saline with Tween-80 105 % of control | endpoint: mean survival time, dose: 1.56 mg/kg/injection, schedule: Q01DX009 (ip), vehicle: saline with Tween-80 101 % of control | endpoint: mean survival time, dose: 3.13 mg/kg/injection, schedule: Q01DX009 (ip), vehicle: saline with Tween-80 101 % of control | [2] 95 % of control | [3] 98 % of control | [5] 93 % of control

[I][Pt+2][I].[NH-]CC1CCCC[N-]1 (stereo unspecified)
inactive: endpoint: mean survival time, dose: 3.13 mg/kg/injection, schedule: Q04DX003 (ip), vehicle: distilled water + Tween-80 98 % of control | endpoint: mean survival time, dose: 6.25 mg/kg/injection, schedule: Q04DX003 (ip), vehicle: distilled water + Tween-80 95 % of control | endpoint: mean survival time, dose: 12.5 mg/kg/injection, schedule: Q04DX003 (ip), vehicle: distilled water + Tween-80 95 % of control | endpoint: mean survival time, dose: 25.0 mg/kg/injection, schedule: Q04DX003 (ip), vehicle: distilled water + Tween-80 104 % of control | endpoint: mean survival time, dose: 50.0 mg/kg/injection, schedule: Q04DX003 (ip), vehicle: distilled water + Tween-80 98 % of control

O=C1NC(=O)c2ccccc21
inactive: endpoint: mean survival time, dose: 100.0 mg/kg/injection, schedule: Q01DX009 (ip), vehicle: Klucel (hydroxypropylcellulose) (HPC) 102 % of control | endpoint: mean survival time, dose: 200.0 mg/kg/injection, schedule: Q01DX009 (ip), vehicle: Klucel (hydroxypropylcellulose) (HPC) 106 % of control | endpoint: mean survival time, dose: 400.0 mg/kg/injection, schedule: Q01DX009 (ip), vehicle: Klucel (hydroxypropylcellulose) (HPC) 101 % of control

CCC(C)(O)Cc1cnccn1 (stereo unspecified)
inactive: endpoint: mean survival time, dose: 100.0 mg/kg/injection, schedule: Q01DX009 (ip), vehicle: saline 108 % of control | endpoint: mean survival time, dose: 200.0 mg/kg/injection, schedule: Q01DX009 (ip), vehicle: saline 97 % of control | endpoint: mean survival time, dose: 400.0 mg/kg/injection, schedule: Q01DX009 (ip), vehicle: saline 96 % of control

[CH3][Pb]([CH3])([CH3])[Cl]
inactive: endpoint: mean survival time, dose: 1.56 mg/kg/injection, schedule: Q01DX009 (ip), vehicle: saline 97 % of control | endpoint: mean survival time, dose: 1.56 mg/kg/injection, schedule: Q04DX002 (ip), vehicle: saline 101 % of control | endpoint: mean survival time, dose: 3.13 mg/kg/injection, schedule: Q01DX009 (ip), vehicle: saline 87 % of control | endpoint: mean survival time, dose: 3.13 mg/kg/injection, schedule: Q04DX002 (ip), vehicle: saline 108 % of control | endpoint: mean survival time, dose: 6.25 mg/kg/injection, schedule: Q04DX002 (ip), vehicle: saline 92 % of control | endpoint: mean survival time, dose: 12.5 mg/kg/injection, schedule: Q04DX002 (ip), vehicle: saline 93 % of control

O=C(O)C1CC(c2ccccc2)=NN1c1ccccc1 (stereo unspecified)
inactive: endpoint: mean survival time, dose: 12.5 mg/kg/injection, schedule: Q01DX009 (ip), vehicle: water 101 % of control and 103 % of control and 104 % of control | endpoint: mean survival time, dose: 25.0 mg/kg/injection, schedule: Q01DX009 (ip), vehicle: water 96 % of control and 101 % of control and 102 % of control | endpoint: mean survival time, dose: 50.0 mg/kg/injection, schedule: Q01DX009 (ip), vehicle: water 96 % of control and 102 % of control (2×) | endpoint: mean survival time, dose: 100.0 mg/kg/injection, schedule: Q01DX009 (ip), vehicle: water 93 % of control and 102 % of control and 104 % of control | endpoint: mean survival time, dose: 200.0 mg/kg/injection, schedule: Q01DX009 (ip), vehicle: water 102 % of control (2×) and 112 % of control

CCSC(C(O)C(O)C(O)C(O)CO)n1cnc2c(SC)ncnc21 (stereo unspecified)
inactive: endpoint: mean survival time, dose: 25.0 mg/kg/injection, schedule: Q01DX005 (ip), vehicle: water 89 % of control | endpoint: mean survival time, dose: 50.0 mg/kg/injection, schedule: Q01DX005 (ip), vehicle: water 94 % of control | endpoint: mean survival time, dose: 100.0 mg/kg/injection, schedule: Q01DX005 (ip), vehicle: water 94 % of control | endpoint: mean survival time, dose: 200.0 mg/kg/injection, schedule: Q01DX005 (ip), vehicle: water 94 % of control

Nc1nnn(CCO)n1
inactive: [2] 100 % of control | [3] 97 % of control | [5] 96 % of control

CN(C)B(B(N(C)C)N(C)C)N(C)C
inactive: endpoint: mean survival time, dose: 100.0 mg/kg/injection, schedule: Q01DX001 (ip), vehicle: saline 105 % of control | endpoint: mean survival time, dose: 200.0 mg/kg/injection, schedule: Q01DX001 (ip), vehicle: saline 97 % of control | endpoint: mean survival time, dose: 400.0 mg/kg/injection, schedule: Q01DX001 (ip), vehicle: saline 101 % of control

Cc1cccc(NC(=O)c2ccccc2)n1
inactive: endpoint: mean survival time, dose: 12.5 mg/kg/injection, schedule: Q01DX009 (ip), vehicle: saline with Tween-80 97 % of control | [4] 101 % of control | [1] 103 % of control

C=CC[N+]12CC=C(CO)C1C(O)CC2 (stereo unspecified)
inactive: endpoint: mean survival time, dose: 100.0 mg/kg/injection, schedule: Q04DX002 (ip), vehicle: saline 101 % of control | endpoint: mean survival time, dose: 200.0 mg/kg/injection, schedule: Q04DX002 (ip), vehicle: saline 104 % of control | endpoint: mean survival time, dose: 400.0 mg/kg/injection, schedule: Q04DX002 (ip), vehicle: saline 97 % of control

NC/C(=N\O)c1ccc(-c2ccccc2)cc1
inactive: endpoint: mean survival time, dose: 100.0 mg/kg/injection, schedule: Q01DX001 (ip), vehicle: Klucel (hydroxypropylcellulose) (HPC) 91 % of control | endpoint: mean survival time, dose: 200.0 mg/kg/injection, schedule: Q01DX001 (ip), vehicle: Klucel (hydroxypropylcellulose) (HPC) 91 % of control | endpoint: mean survival time, dose: 400.0 mg/kg/injection, schedule: Q01DX001 (ip), vehicle: Klucel (hydroxypropylcellulose) (HPC) 91 % of control

O=C1CCCCCCCC1O (stereo unspecified)
inactive: [2] 95 % of control | [3] 94 % of control | [5] 105 % of control

CO[C@@]12[C@@H]3N[C@@H]3CN1C1=C(C(=O)C(NCCN)=C(C)C1=O)[C@@H]2COC(N)=O
inactive: endpoint: median survival time, dose: 0.75 mg/kg/injection, schedule: Q01DX001 (ip), vehicle: water 123 % of control and 110 % of control | endpoint: median survival time, dose: 1.5 mg/kg/injection, schedule: Q01DX001 (ip), vehicle: water 111 % of control | endpoint: median survival time, dose: 6.0 mg/kg/injection, schedule: Q01DX001 (ip), vehicle: water 94 % of control
